The nature of the series: Caco-2 cell monolayer uptake and apparent permeability. Type of series: in vitro ADME. The settings on record: human. Background: Passage across Caco-2 layers is used to estimate intestinal permeability.

Counter-ions that a name gives are not always drawn. Like-named read-outs stand apart in the source and are kept apart here.

In patent publication US20130115294A1, “STABLE LIQUID OILY READY-TO-USE FORMULATIONS, PREPARATION THEREOF AND USE THEREOF” (CTS CHEMICAL INDUSTRIES LTD., priority 2010, published 2013) one finds Papp data, which are given here for one compound.

Procedure: Caco-2 monolayer were grown in Dulbecco's modified Eagle's medium supplemented with 10% fetal bovine serum, 1% L-glutamine, 1% nonessential amino acids, and 5% antibiotic-antimycotic solution at 37° C. in humidified air, 5% CO2 atmosphere. The culture medium was replaced every 96 h. The uptake studies were conducted with monolayers (passages 73 to 79) in wells of 2 cm^2 which reach confluency following 4 days of incubation in culture. Prior to the experiments, the culture medium was replaced with transport medium and cell monolayers were subsequently equilibrated for 30 min at 37° C. before the uptake study. The transport medium was Hanks buffer composed of 136.89 mM NaCl, 5.36 mM KCl, 0.34 mM Na2HPO4, 0.44 mM KH2PO4, 0.41 mM MgSO4 7H2O, 19.45 mM glucose, 1.26 mM CaCl2, 0.49 mM MgCl2 6H2O, 4.17 mM NaHCO3, 10 mM HEPES, and the pH was adjusted to 7.4.
The powder (10 mg equivalent to 1 mg enalapril maleate) was weighted dispersed and fully dissolved in 1 ml Hanks buffer. 25 μl from this solution were placed in Caco-2 wells with 975 μl of Hanks buffer resulting in a final concentration of 25 μg/ml of enalapril maleate.
A 100 μl of parent CTS oil formulation was withdrawn and diluted with soybean oil USP to give 1 mg/ml of enalapril maleate.
A 25 μl of the diluted oil solution was placed into the transport medium to give a 25 μg/ml of enalapril maleate in each well (dilution 1:40).
All the uptake experiments were performed over 3 hours at 37° C. Following incubation the transport medium was collected in clean tubes stored at −80° C. up to the quantitative determination of the enalapril levels by HPLC (The HPLC method was provided by CTS). Regarding the cell monolayer in the wells, 1 ml of 0.2% SDS was added to each well to elicit lysis of the cell monolayer. The lysate were collected in a clean tube and enalapril was determined by CTS HPLC technique. […]

Turning to `CCOC(=O)[C@H](CCc1ccccc1)N[C@@H](C)C(=O)N1CCC[C@H]1C(=O)O` [ENL-solution, enalapril maleate], the Papp at 3 h, 25 μg/ml came to 25.1 ± 0.5 ×10⁻⁶ cm/s (Caco-2, pH 7.4, 25 μg/ml enalapril maleate, no intestinal juice, read-out: apparent permeability (Papp)); 25.2 ± 4.81 ×10⁻⁶ cm/s (Caco-2, pH 7.4, printed values are Papp multiplied by 10^6, 25 μg/ml enalapril maleate, 37° C., Hanks buffer pH 7.4, + 0.1% intestinal juice (IJ), read-out: Papp × 10^6 (cm/s) ± s.d); 25.1 ± 2.93 ×10⁻⁶ cm/s (Caco-2, pH 7.4, printed values are Papp multiplied by 10^6, 25 μg/ml enalapril maleate, 37° C., Hanks buffer pH 7.4, no intestinal juice, read-out: Papp × 10^6 (cm/s) ± s.d).
